Measured values as given in ChEMBL document CHEMBL1201862, “PubChem BioAssay data set” (2004).
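How tested: cells in 96-well plates exposed to compound for 48 hours at five concentrations. GI50 is the concentration that inhibits growth by half.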 Calls of active or inactive are those of the source. Cut-off read from the data, not from the text of the source: active = GI50 up to about 1.1 µM and inactive = higher.

Tests used:
Experiment in all cases: NCI tumour cell line growth inhibition, 48 h
[1] = system: A498
[2] = system: BT-549
[3] = system: CCRF-CEM
[4] = system: DU-145
[5] = system: HOP-92
[6] = system: K562
[7] = system: KM12
[8] = system: MDA-MB-231
[9] = system: MDA-MB-435
[10] = system: MDA-N
[11] = system: MOLT-4
[12] = system: NCI-H23
[13] = system: OVCAR-3
[14] = system: OVCAR-4
[15] = system: PC-3
[16] = system: SF-268
[17] = system: SF-295
[18] = system: SNB-19
[19] = system: SW-620
[20] = system: UACC-62

COc1cc(C2c3cc4c(cc3OC(N3CCOCC3)C2C)OCO4)cc(OC)c1OC (stereo not given)
GI50 [1]: 0.743 µM (active) | GI50 [2]: 4.29 µM (inactive) | GI50 [3]: 0.457 µM (active) | GI50 [4]: 0.368 µM (active) | GI50 [5]: 0.7 µM (active) | GI50 [6]: 0.397 µM (active) | GI50 [7]: 0.367 µM (active) | GI50 [8]: 2.84 µM (inactive) | GI50 [9]: 0.179 µM (active) | GI50 [10]: 0.148 µM (active) | GI50 [11]: 1.09 µM (active) | GI50 [12]: 1.38 µM (inactive) | GI50 [13]: 0.589 µM (active) | GI50 [14]: > 23.7 µM (inactive) | GI50 [15]: 1.19 µM (inactive) | GI50 [16]: 10.5 µM (inactive) | GI50 [17]: 0.519 µM (active) | GI50 [18]: 0.838 µM (active) | GI50 [19]: 0.59 µM (active) | GI50 [20]: 0.537 µM (active)

O=c1ccc2c(Cl)cccc2o1
GI50 [1]: > 100 µM (inactive) | GI50 [2]: > 100 µM (inactive) | GI50 [3]: > 100 µM (inactive) | GI50 [4]: > 100 µM (inactive) | GI50 [5]: > 100 µM (inactive) | GI50 [6]: > 100 µM (inactive) | GI50 [7]: > 100 µM (inactive) | GI50 [8]: > 100 µM (inactive) | GI50 [9]: > 100 µM (inactive) | GI50 [10]: > 100 µM (inactive) | GI50 [11]: > 100 µM (inactive) | GI50 [12]: > 100 µM (inactive) | GI50 [13]: > 100 µM (inactive) | GI50 [14]: > 100 µM (inactive) | GI50 [15]: > 100 µM (inactive) | GI50 [16]: > 100 µM (inactive) | GI50 [17]: > 100 µM (inactive) | GI50 [18]: > 100 µM (inactive) | GI50 [19]: > 100 µM (inactive) | GI50 [20]: > 100 µM (inactive)

CC(Oc1ccccc1Cl)C(=O)NN1C(=O)CC(=O)N(c2ccc(Cl)cc2)C1=S (stereo not given)
GI50 [1]: 20.4 µM (inactive) | GI50 [2]: 55.1 µM (inactive) | GI50 [3]: < 0.01 µM (active) | GI50 [4]: 34.6 µM (inactive) | GI50 [5]: 22.6 µM (inactive) | GI50 [6]: 13.1 µM (inactive) | GI50 [7]: 47.6 µM (inactive) | GI50 [8]: 40.4 µM (inactive) | GI50 [9]: 61 µM (inactive) | GI50 [10]: 37.6 µM (inactive) | GI50 [11]: 27.4 µM (inactive) | GI50 [12]: 38 µM (inactive) | GI50 [13]: 38.4 µM (inactive) | GI50 [14]: 28.1 µM (inactive) | GI50 [15]: 38.1 µM (inactive) | GI50 [16]: 67.1 µM (inactive) | GI50 [17]: 44.1 µM (inactive) | GI50 [18]: 66.5 µM (inactive) | GI50 [19]: 52 µM (inactive) | GI50 [20]: 30.3 µM (inactive)

N#Cc1c(N2CCCC2)nsc1NCc1ccccc1
GI50 [1]: > 100 µM (inactive) | GI50 [2]: > 100 µM (inactive) | GI50 [3]: > 100 µM (inactive) | GI50 [4]: > 100 µM (inactive) | GI50 [5]: 54.1 µM (inactive) | GI50 [6]: > 100 µM (inactive) | GI50 [7]: > 100 µM (inactive) | GI50 [8]: > 100 µM (inactive) | GI50 [9]: > 100 µM (inactive) | GI50 [10]: > 100 µM (inactive) | GI50 [11]: > 100 µM (inactive) | GI50 [12]: > 100 µM (inactive) | GI50 [13]: > 100 µM (inactive) | GI50 [14]: > 100 µM (inactive) | GI50 [15]: > 100 µM (inactive) | GI50 [16]: > 100 µM (inactive) | GI50 [17]: > 100 µM (inactive) | GI50 [18]: > 100 µM (inactive) | GI50 [19]: > 100 µM (inactive) | GI50 [20]: 75.2 µM (inactive)
